According to the Kinase Knowledgebase extract (Sharma et al. 2016):

Each compound was assayed against CDK2 (human) (UniProt P24941) (assay: Enzyme Assay).

Point of comparison: `COc1nc(C)c(-c2ccnc(Nc3cccc(O)c3)n2)s1`, IC50 120 nM. Against it:
- COc1ccc(Nc2nccc(-c3sc(C)nc3C)n2)cc1O — within 1.5-fold, 140 nM
- COc1ccc(Nc2nccc(-c3sc(OC)nc3C)n2)cc1 — 2.1-fold higher, 250 nM
- Cc1nc(C)c(-c2ccnc(Nc3ccc(CCO)cc3)n2)s1 — 3.9-fold higher, 470 nM
- COc1nc(C)c(-c2ccnc(Nc3ccc(C)c(I)c3)n2)s1 — 5.8-fold higher, 700 nM
- COc1nc(C)c(-c2ccnc(Nc3ccc(O)cc3)n2)s1 — 2.4-fold lower, 50 nM
- COc1nc(C)c(-c2ccnc(Nc3cccc([N+](=O)[O-])c3)n2)s1 — 2-fold lower, 60 nM
- COc1nc(C)c(-c2ccnc(Nc3ccc(N(C)C)cc3)n2)s1 — 6.2-fold higher, 750 nM
- COc1nc(C)c(-c2ccnc(Nc3ccc(F)c(C)c3)n2)s1 — within 1.5-fold, 130 nM
- COc1nc(C)c(-c2ccnc(Nc3ccc(Cl)cc3)n2)s1 — within 1.5-fold, 110 nM
- COc1nc(C)c(-c2ccnc(Nc3ccc(F)cc3)n2)s1 — the same, 120 nM
- Cc1nc(N)sc1-c1ccnc(Nc2ccc(C(F)(F)F)cc2)n1 — 5.7-fold higher, 680 nM
- COc1nc(C)c(-c2ccnc(Nc3ccc(F)c([N+](=O)[O-])c3)n2)s1 — the same, 120 nM
- COc1nc(C)c(-c2ccnc(Nc3ccc(Cl)c(C)c3)n2)s1 — 9.8-fold higher, 1180 nM
- COc1nc(C)c(-c2ccnc(Nc3ccc(C)c([N+](=O)[O-])c3)n2)s1 — within 1.5-fold, 110 nM
